Reference: publication PMC9877316, “Identification of a novel P2X7 antagonist using structure-based virtual screening” (Frontiers in Pharmacology, 2023)
≈ marks a conversion by molar mass, not a printed value.

Assays:
human P2X7 = target: T1, human P2X7 (Homo sapiens, UniProt Q99572); assay: ATP-induced YoPro-1 dye uptake assay, human P2X7; type: cell-based; settings: 300 µM ATP, YoPro-1 uptake
T1 construct: expressed in transfected cells; host or cells: 1321N1 astrocytoma cells (compounds 1-17); HEK-293 cells stably expressing human P2X7 (gift of E. Adinolfi)
T1 sequence (Q99572 1-595): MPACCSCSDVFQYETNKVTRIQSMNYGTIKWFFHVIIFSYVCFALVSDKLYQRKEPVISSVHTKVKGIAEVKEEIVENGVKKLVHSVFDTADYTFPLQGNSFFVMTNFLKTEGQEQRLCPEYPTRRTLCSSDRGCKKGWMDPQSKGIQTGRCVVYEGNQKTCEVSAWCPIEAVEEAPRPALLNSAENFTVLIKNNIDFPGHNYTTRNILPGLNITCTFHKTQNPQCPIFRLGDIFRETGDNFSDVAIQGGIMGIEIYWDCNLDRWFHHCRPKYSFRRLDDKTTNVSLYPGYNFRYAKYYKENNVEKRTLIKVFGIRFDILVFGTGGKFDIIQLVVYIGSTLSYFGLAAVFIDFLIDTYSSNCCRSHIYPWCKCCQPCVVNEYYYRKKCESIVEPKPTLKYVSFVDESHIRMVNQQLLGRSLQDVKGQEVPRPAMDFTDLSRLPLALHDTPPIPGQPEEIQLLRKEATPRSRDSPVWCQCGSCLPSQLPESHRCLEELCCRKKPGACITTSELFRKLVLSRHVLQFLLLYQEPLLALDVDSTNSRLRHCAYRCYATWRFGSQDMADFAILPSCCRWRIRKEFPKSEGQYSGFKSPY
Experimental: 1321N1 astrocytoma cells and HEK-293 cells were cultured (at 37°C, 5% CO2) in Dulbecco’s modified Eagle’s medium (DMEM/F-12 with Glutamax) supplemented with 10% foetal bovine serum (FBS) and 200 unit/ml of penicillin and streptomycin antibiotics (Fisher Scientific). For stable cell line generation, cells were transfected using FuGene HD Transfection Reagent (Promega) according to the manufacturer’s protocol with plasmids encoding either human P2X4 with a C-terminal (His)10 tag ([Young et al., 2008]), human P2X7 with a C-terminal EYMPME tag (kindly provided by R.A. North) or rat P2X7 C-terminally tagged with a GFP-(His)8 tag, generated by PCR amplification of the coding sequence for rat P2X7 from a pcDNA-based expression vector ([Young et al., 2007]), adding XhoI and EcoRI sites at the 5′- and 3′- ends respectively, followed by restriction digestion and ligation into a zebrafish P2X4-GFP expression vector based on pEGFP-C1 (kindly provided by Eric Gouaux; [Kawate and Gouaux, 2006]) to replace the zebrafish P2X4 coding region with rP2X7. Transfected clones were grown in DMEM/F-12 with Glutamax medium supplemented with G-418 (Geneticin®, Fisher Scientific), 600 μg/ml and 150 μg/ml during selection and maintenance respectively. […] HEK-293 cells stably expressing human P2X7 ([Adinolfi et al., 2010]) were a kind gift from Elena Adinolfi.
Cells were plated as for the calcium influx assay (Section 2.4). Culture medium was replaced with low divalent cation containing extracellular solution (ECS-LD; 147 mM NaCl, 10 mM HEPES, 13 mM Glucose, .2 mM CaCl2, 2 mM KCl. pH = 7.4 in MilliQ water) and 5 μM Yopro-1. […] The baseline was measured with a BMG Clariostar instrument for 5–10 cycles, followed by addition of ATP (or BzATP) and recording for at least 30 further cycles (approx. 1 min per data point). The collected responses were normalized to the first data-point recorded after ATP addition. The initial gradient of the dye uptake curve was used to calculate the response to ATP.
The antagonist activity of the 17 compounds (applied at 10 µM) was assayed initially on 1321N1 astrocytoma cells stably expressing human P2X4 receptors by measuring the ATP-induced (applied at 1.2 µM) increase in Fluo-4 fluorescence due to calcium influx via P2X4, using 2 µM BX430 as a positive control (Figure 1A). […] The ATP-induced rate of uptake of YoPro-1 dye was measured upon application of at 300 µM ATP, using .1 µM A740003 as a positive control (Figure 1B).
A small library of 16 commercially available compounds was selected according to the presence of the same scaffold as GP-25, (70% similarity, Tanimoto index) and/or presence of at least one functional group we hypothesized could contribute to GP-25 activity (e.g. carboxylic acid, halogen substituent to the aromatic ring, ester, etc.) (Compounds 18–33; Table 1). […] Although the number of compounds tested was limited by their availability via a commercial source, the numerous ‘hits’ allowed for a basic structure-relationship (SAR) analysis.

Solubility observations = type: physicochemical; settings: read-out: maximum concentration that could be applied (due to solubility issues)

- inhibition at 30 µM (human P2X7; P2X7, approx. % inhibition at 30 μM compound, 1321N1 (1-17) or HEK (18-33) cells, read-out: % Inhibition at hP2X7): ~75%
- IC50 (human P2X7): 8.7 µM
- solubility (Solubility observations): 100 µM (≈ 48.4 µg/mL)
Structure (SMILES): COC(=O)C1=C(C)NC2=C(C(=O)c3ccccc32)C1c1cc(Br)ccc1OCC(=O)O (stereo not drawn) [Compound 9, (4-bromo-2-(3-(methoxycarbonyl)-2-methyl-5-oxo-4,5-dihydro-1H-indeno(1,2-b)pyridine-4-yl)phenoxy)acetic acid]
